Results on 31 molecules are retold here after US8822468B2 (Novartis AG, priority 2008, dated 2014).

pIC50: −log10 of the molar value.

The target of the experiment is T1, cMET receptor tyrosine kinase (GST-cMET (969-1390)) (Homo sapiens, UniProt P08581).
T1 construct: made in house
T1 sequence (P08581 969-1390): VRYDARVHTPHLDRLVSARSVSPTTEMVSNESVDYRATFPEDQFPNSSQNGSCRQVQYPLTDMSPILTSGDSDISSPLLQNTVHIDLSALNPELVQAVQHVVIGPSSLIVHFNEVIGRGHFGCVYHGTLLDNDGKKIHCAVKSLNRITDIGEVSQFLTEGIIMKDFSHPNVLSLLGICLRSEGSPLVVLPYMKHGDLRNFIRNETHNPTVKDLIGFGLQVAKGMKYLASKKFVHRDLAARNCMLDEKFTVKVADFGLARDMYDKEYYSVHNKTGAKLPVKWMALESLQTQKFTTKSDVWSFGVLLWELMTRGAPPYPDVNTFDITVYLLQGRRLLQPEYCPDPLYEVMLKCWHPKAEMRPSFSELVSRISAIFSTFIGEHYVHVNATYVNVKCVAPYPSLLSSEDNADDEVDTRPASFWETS
Description: EPK cMET profiling assay (LanthaScreen TR-FRET antibody based kinase phosphorylation assay). In kind it is biochemical. The settings on record: purified recombinant GST-cMET (969-1390), 2 μM ATP, 50 nM Fluorescein-PolyEAY, 60 minutes at room temperature; read-out: c-Met IC50. The essentials:
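Compounds tested at eight final concentrations from 10 down to 0.003 µM against affinity-purified GST-cMET (969-1390, 0.3 nM) with 2 µM ATP and 50 nM fluorescein-PolyEAY in Tris buffer with MgCl2 and MnCl2, 1 h at room temperature. After EDTA stop, phosphoproduct detected by LanthaScreen TR-FRET with Tb-PY20 antibody, end-point measurement.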
`CN(C)CCCNc1ccc2ncc(Cc3ccc4ncccc4c3)n2n1` [Example 101, N,N-Dimethyl-N′-(3-quinolin-6-ylmethyl-imidazo[1,2-b]pyridazin-6-yl)-propane-1,3-diamine]: the pIC50 (as a rule, the negative decadic logarithm of the IC50, by convention in mol/L) was 6.89.
In the case of `O=C1CN(c2ccc3ncc(Cc4ccc5ncccc5c4)n3n2)CCN1` [Example 102, 4-(3-Quinolin-6-ylmethyl-imidazo[1,2-b]pyridazin-6-yl)-piperazin-2-one], the pIC50 was 7.42.
For `CC(Nc1ccc2ncc(Cc3ccc4ncccc4c3)n2n1)c1ccccc1` (stereo not shown) [Example 103, (1-Phenyl-ethyl)-(3-quinolin-6-ylmethyl-imidazo[1,2-b]pyridazin-6-yl)-amine] the value was 6.26.
For the molecule `CN(C)c1ccc2ncc(Cc3ccc4ncccc4c3)n2n1` [Example 106, Dimethyl-(3-quinolin-6-ylmethyl-imidazo[1,2-b]pyridazin-6-yl)-amine], the negative logarithm of the IC50 (pIC50) is 7.13.
For `O[C@H]1CCN(c2ccc3ncc(Cc4ccc5ncccc5c4)n3n2)C1` [Example 107, (S)-1-(3-Quinolin-6-ylmethyl-imidazo[1,2-b]pyridazin-6-yl)-pyrrolidin-3-ol] the value was 7.70.
For `O[C@@H]1CCN(c2ccc3ncc(Cc4ccc5ncccc5c4)n3n2)C1` [Example 108, (R)-1-(3-Quinolin-6-ylmethyl-imidazo[1,2-b]pyridazin-6-yl)-pyrrolidin-3-ol] the value was 8.01; for `O=C1CCN(c2ccc3ncc(Cc4ccc5ncccc5c4)n3n2)CCN1` [Example 109, 1-(3-Quinolin-6-ylmethyl-imidazo[1,2-b]pyridazin-6-yl)-[1,4]diazepan-5-one], 7.21; for `c1cnc2ccc(Cc3cnc4ccc(N5CCC6(CC5)OCCO6)nn34)cc2c1` [Example 110, 6-[6-(1,4-Dioxa-8-aza-spiro[4.5]dec-8-yl)-imidazo[1,2-b]pyridazin-3-ylmethyl]-quinoline], 7.38.
For `CC1CCCCN1c1ccc2ncc(Cc3ccc4ncccc4c3)n2n1` (stereo not shown) [Example 111, 6-[6-(2-Methyl-piperidin-1-yl)-imidazo[1,2-b]pyridazin-3-ylmethyl]-quinoline] the value was 6.47; for `Clc1cccc(Sc2ccc3ncc(Cc4ccc5ncccc5c4)n3n2)c1` [Example 112, 6-[6-(3-Chloro-phenylsulfanyl)-imidazo[1,2-b]pyridazin-3-ylmethyl]-quinoline], 6.66; for `Clc1cccc(Oc2ccc3ncc(Cc4ccc5ncccc5c4)n3n2)c1` [Example 113, 6-[6-(3-Chloro-phenoxy)-imidazo[1,2-b]pyridazin-3-ylmethyl]-quinoline], 7.08.
As to `FC(F)(F)CNc1ccc2ncc(Cc3ccc4ncccc4c3)n2n1` [Example 114, (3-Quinolin-6-ylmethyl-imidazo[1,2-b]pyridazin-6-yl)-(2,2,2-trifluoro-ethyl)-amine], the pIC50 was 7.25.
Regarding `c1cnc2ccc(Cc3cnc4ccc(-n5ccnc5)nn34)cc2c1` [Example 115, 6-(6-Imidazol-1-yl-imidazo[1,2-b]pyridazin-3-ylmethyl)-quinoline], the negative-log IC50 (pIC50) is 7.02.
Consider `Cc1nccn1-c1ccc2ncc(Cc3ccc4ncccc4c3)n2n1` [Example 116, 6-[6-(2-Methyl-imidazol-1-yl)-imidazo[1,2-b]pyridazin-3-ylmethyl]-quinoline], for which the pIC50 is 6.01.
For the molecule `c1ccc(CN2CCC(Nc3ccc4ncc(Cc5ccc6ncccc6c5)n4n3)C2)cc1` (stereo not shown) [Example 117, (1-Benzyl-pyrrolidin-3-yl)-(3-quinolin-6-ylmethyl-imidazo[1,2-b]pyridazin-6-yl)-amine], the pIC50 was 6.20.
In the case of `Cc1cn(-c2ccc3ncc(Cc4ccc5ncccc5c4)n3n2)cn1` [Example 118, 6-[6-(4-Methyl-imidazol-1-yl)-imidazo[1,2-b]pyridazin-3-ylmethyl]-quinoline], the negative logarithm of the IC50 (pIC50) was 6.66.
Turning to `O=C1CCN(c2ccc3ncc(Cc4ccc5ncccc5c4)n3n2)CC1` [Example 120, 1-(3-Quinolin-6-ylmethyl-imidazo[1,2-b]pyridazin-6-yl)-piperidin-4-one], the pIC50 was 7.16.
In the case of `Clc1cccc(Nc2ccc3ncc(Cc4ccc5ncccc5c4)n3n2)c1` [Example 121, (3-Chloro-phenyl)-(3-quinolin-6-ylmethyl-imidazo[1,2-b]pyridazin-6-yl)-amine], the negative-log IC50 (pIC50) was 7.70.
In the case of `c1ccc(Nc2ccc3ncc(Cc4ccc5ncccc5c4)n3n2)cc1` [Example 122, Phenyl-(3-quinolin-6-ylmethyl-imidazo[1,2-b]pyridazin-6-yl)-amine] it was 7.14.
In the case of `CCOc1ccc2ncc(Cc3ccc4ncccc4c3)n2n1` [Example 123, 6-(6-ethoxy-imidazo[1,2-b]pyridazin-3-ylmethyl)-quinoline] it was 7.06; in that of `F[C@@H]1CCN(c2ccc3ncc(Cc4ccc5ncccc5c4)n3n2)C1` [Example 124, 6-[6-((R)-3-fluoro-pyrrolidin-1-yl)-imidazo[1,2-b]pyridazin-3-ylmethyl]-quinoline], 6.74; in that of `F[C@H]1CCN(c2ccc3ncc(Cc4ccc5ncccc5c4)n3n2)C1` [Example 125, 6-[6-((S)-3-Fluoro-pyrrolidin-1-yl)-imidazo[1,2-b]pyridazin-3-ylmethyl]-quinoline], 6.89.
For `c1cnc2ccc(Cc3cnc4ccc(Nc5ccc(CN6CCCCC6)cc5)nn34)cc2c1` [Example 126, (4-Piperidin-1-ylmethyl-phenyl)-(3-quinolin-6-ylmethyl-imidazo[1,2-b]pyridazin-6-yl)-amine], the pIC50 is 7.80.
For `FC(F)(F)c1cccc(Nc2ccc3ncc(Cc4ccc5ncccc5c4)n3n2)c1` [Example 127, (3-Quinolin-6-ylmethyl-imidazo[1,2-b]pyridazin-6-yl)-(3-trifluoromethyl-phenyl)-amine], the pIC50 is 7.05.
As for `Clc1ccccc1Nc1ccc2ncc(Cc3ccc4ncccc4c3)n2n1` [Example 128, (2-Chloro-phenyl)-(3-quinolin-6-ylmethyl-imidazo[1,2-b]pyridazin-6-yl)-amine], the pIC50 is 7.54.
For `c1cncc(Nc2ccc3ncc(Cc4ccc5ncccc5c4)n3n2)c1` [Example 129, Pyridin-3-yl-(3-quinolin-6-ylmethyl-imidazo[1,2-b]pyridazin-6-yl)-amine] the value was 7.16.
Consider `c1cnc2ccc(Cc3cnc4ccc(Nc5ccncn5)nn34)cc2c1` [Example 131, Pyrimidin-4-yl-(3-quinolin-6-ylmethyl-imidazo[1,2-b]pyridazin-6-yl)-amine], for which the pIC50 was 6.74.
For `CCn1nccc1Nc1ccc2ncc(Cc3ccc4ncccc4c3)n2n1` [Example 132, (2-Ethyl-2H-pyrazol-3-yl)-(3-quinolin-6-ylmethyl-imidazo[1,2-b]pyridazin-6-yl)-amine], the pIC50 is 7.30.
In the case of `c1cnc2ccc(Cc3cnc4ccc(-n5cccn5)nn34)cc2c1` [Example 134, 6-(6-Pyrazol-1-yl-imidazo[1,2-b]pyridazin-3-ylmethyl)-quinoline] it was 6.24.
On to `Clc1cccc(Nc2ccc3ncc(Cc4ccc5ncccc5c4)n3n2)c1Cl` [Example 136, (2,3-Dichloro-phenyl)-(3-quinolin-6-ylmethyl-imidazo[1,2-b]pyridazin-6-yl)-amine], for which the negative logarithm of the IC50 (pIC50) is 6.46.
For `Fc1ccc(Nc2ccc3ncc(Cc4ccc5ncccc5c4)n3n2)cc1Cl` [Example 137, (3-Chloro-4-fluoro-phenyl)-(3-quinolin-6-ylmethyl-imidazo[1,2-b]pyridazin-6-yl)-amine], the pIC50 is 7.00.
